compound: COc1cccc2cc(-c3nc([C@H]4CC[C@H](C(=O)O)CC4)n4ncnc(N)c34)[nH]c12 [OSI-027] + CC1(C)CCC(c2ccc(Cl)cc2)=C(CN2CCN(c3ccc(C(=O)NS(=O)(=O)c4ccc(N[C@H](CCN5CCOCC5)CSc5ccccc5)c(S(=O)(=O)C(F)(F)F)c4)cc3)CC2)C1 [Navitoclax] (partner 0.5 µM); experiment: relative viability (nuclei count vs DMSO), 5 days (fraction); higher = more cells survive; settings: first compound 0.01 µM
Procedure, shortened: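 Medians of duplicate plates are given as relative viability. That measure is the nuclei count in treated wells divided by the count in vehicle wells. Counts were taken on 4× images of lung cancer cell lines in 1536-well plates, 5 days after pin-tool dosing the day after seeding with one drug alone or a fixed anchor-drug dose plus five library-drug doses (not always all listed) in √10 steps.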

Row | Cell Line | relative viability
1 | NCI-H2405 | 0.858
2 | NCI-H1993 | 0.89
3 | ChaGo-K-1 | 0.988
4 | NCI-H1355 | 0.84
5 | HCC-366 | 1.05
6 | NCI-H1915 | 0.831
7 | NCI-H838 | 0.981
8 | A-427 | 0.974
9 | NCI-H2009 | 1.16
10 | EKVX | 0.954
11 | NCI-H2087 | 1.09
12 | NCI-H1734 | 0.749
13 | LU99A | 0.754
14 | NCI-H460 | 1.21
15 | NCI-H2170 | 0.651
16 | SK-LU-1 | 0.743
17 | COR-L23 | 0.988
18 | HCC-15 | 0.713

Row | Cell Line | relative viability
19 | NCI-H1944 | 1.1
20 | EMC-BAC-2 | 1.17
21 | NCI-H1792 | 0.417
22 | NCI-H1395 | 1.16
23 | LC-2-ad | 0.458
24 | NCI-H2085 | 1.11
25 | NCI-H727 | 0.406
26 | NCI-H647 | 1.18
27 | HARA | 1.18
28 | NCI-H3122 | 1.03
29 | COR-L 105 | 0.899
30 | LCLC-97TM1 | 0.36
31 | NCI-H520 | 1.31
32 | NCI-H23 | 0.666
33 | HCC-827 | 1.07
34 | NCI-H2347 | 0.916
35 | LXF-289 | 1.03
36 | NCI-H1666 | 0.912

same assay, conditions: first compound 0.03162 µM

Row | Cell Line | relative viability
37 | NCI-H2405 | 0.791
38 | NCI-H1993 | 0.863
39 | ChaGo-K-1 | 1.4
40 | NCI-H1355 | 0.868
41 | HCC-366 | 1.14
42 | NCI-H1915 | 0.779
43 | NCI-H838 | 0.998
44 | A-427 | 0.873
45 | NCI-H2009 | 1.15
46 | EKVX | 0.873
47 | NCI-H2087 | 0.998
48 | NCI-H1734 | 0.836
49 | LU99A | 0.651
50 | NCI-H460 | 1.06
51 | NCI-H2170 | 0.565
52 | SK-LU-1 | 0.869
53 | COR-L23 | 0.782
54 | HCC-15 | 0.689

Row | Cell Line | relative viability
55 | NCI-H1944 | 1.04
56 | EMC-BAC-2 | 1.05
57 | NCI-H1792 | 0.458
58 | NCI-H1395 | 0.998
59 | LC-2-ad | 0.4
60 | NCI-H2085 | 1.12
61 | NCI-H727 | 0.418
62 | NCI-H647 | 1.11
63 | HARA | 1.26
64 | NCI-H3122 | 1.14
65 | COR-L 105 | 0.782
66 | LCLC-97TM1 | 0.331
67 | NCI-H520 | 1.05
68 | NCI-H23 | 0.955
69 | HCC-827 | 1.06
70 | NCI-H2347 | 0.764
71 | LXF-289 | 0.973
72 | NCI-H1666 | 0.878

same assay, conditions: first compound 0.1 µM

Row | Cell Line | relative viability
73 | NCI-H2405 | 0.768
74 | NCI-H1993 | 0.659
75 | ChaGo-K-1 | 0.533
76 | NCI-H1355 | 0.855
77 | HCC-366 | 1.06
78 | NCI-H1915 | 0.809
79 | NCI-H838 | 0.853
80 | A-427 | 0.837
81 | NCI-H2009 | 1.07
82 | EKVX | 1.01
83 | NCI-H2087 | 0.8
84 | NCI-H1734 | 0.785
85 | LU99A | 0.695
86 | NCI-H460 | 1.3
87 | NCI-H2170 | 0.471
88 | SK-LU-1 | 0.679
89 | COR-L23 | 0.938
90 | HCC-15 | 0.676

Row | Cell Line | relative viability
91 | NCI-H1944 | 1.03
92 | EMC-BAC-2 | 1.12
93 | NCI-H1792 | 0.556
94 | NCI-H1395 | 1.03
95 | LC-2-ad | 0.372
96 | NCI-H2085 | 1.1
97 | NCI-H727 | 0.477
98 | NCI-H647 | 1.09
99 | HARA | 1.24
100 | NCI-H3122 | 1.13
101 | COR-L 105 | 0.886
102 | LCLC-97TM1 | 0.381
103 | NCI-H520 | 0.793
104 | NCI-H23 | 0.808
105 | HCC-827 | 0.995
106 | NCI-H2347 | 0.609
107 | LXF-289 | 1.01
108 | NCI-H1666 | 0.662

same assay, conditions: first compound 0.3162 µM

Row | Cell Line | relative viability
109 | NCI-H2405 | 0.636
110 | NCI-H1993 | 0.502
111 | ChaGo-K-1 | 0.759
112 | NCI-H1355 | 0.529
113 | HCC-366 | 1.05
114 | NCI-H1915 | 0.801
115 | NCI-H838 | 0.501
116 | A-427 | 0.603
117 | NCI-H2009 | 1.07
118 | EKVX | 0.807
119 | NCI-H2087 | 0.537
120 | NCI-H1734 | 0.746
121 | LU99A | 0.427
122 | NCI-H460 | 0.789
123 | NCI-H2170 | 0.535
124 | SK-LU-1 | 0.453
125 | COR-L23 | 0.923
126 | HCC-15 | 0.611

Row | Cell Line | relative viability
127 | NCI-H1944 | 0.963
128 | EMC-BAC-2 | 1.06
129 | NCI-H1792 | 0.572
130 | NCI-H1395 | 0.85
131 | LC-2-ad | 0.243
132 | NCI-H2085 | 0.931
133 | NCI-H727 | 0.378
134 | NCI-H647 | 0.994
135 | HARA | 1.34
136 | NCI-H3122 | 1.03
137 | COR-L 105 | 0.636
138 | LCLC-97TM1 | 0.214
139 | NCI-H520 | 0.637
140 | NCI-H23 | 0.604
141 | HCC-827 | 0.996
142 | NCI-H2347 | 0.626
143 | LXF-289 | 0.921
144 | NCI-H1666 | 0.575

same assay, conditions: first compound 1 µM

Row | Cell Line | relative viability
145 | NCI-H2405 | 0.384
146 | NCI-H1993 | 0.719
147 | ChaGo-K-1 | 0.713
148 | NCI-H1355 | 0.205
149 | HCC-366 | 0.287
150 | NCI-H1915 | 0.85
151 | NCI-H838 | 0.276
152 | A-427 | 0.696
153 | NCI-H2009 | 0.619
154 | EKVX | 0.44
155 | NCI-H2087 | 0.353
156 | NCI-H1734 | 0.384
